The values below come from ChEMBL document CHEMBL3044835, “Pachyelasides A-D, novel molluscicidal triterpene saponins from Pachyelasma tessmannii” (2005).

Molecules are shown by their SMILES. Values after ≈ are worked out from the molar mass of the structure shown.

The experiment deals with Biomphalaria glabrata. The experiment in a line: Molluscicidal activity against Biomphalaria glabrata assessed as heartbeat measured after 24 hr. The settings on record: read-out: LD50 (the source's name). Format: functional.
As to `CC1(C)C[C@H]2C3=CC[C@@H]4[C@@]5(C)CC[C@H](O[C@@H]6O[C@H](CO)[C@@H](O[C@@H]7OC[C@@H](O)[C@H](O)[C@H]7O)[C@H](O)[C@H]6O[C@@H]6OC[C@@H](O)[C@H](O[C@@H]7O[C@H](CO)[C@@H](O)[C@H](O)[C@H]7O[C@@H]7O[C@H](CO)[C@@H](O)[C@H](O)[C@H]7O)[C@H]6O)C(C)(C)[C@@H]5CC[C@@]4(C)[C@]3(C)CC[C@@]2(C(=O)O)C[C@@H]1OC(=O)/C=C/c1ccccc1` [PACHYELASIDE C], the LC50 stood at 2 µg/mL (≈ 1.48 µM).
The result for `CC1(C)CC[C@]2(C(=O)O)CC[C@]3(C)C(=CC[C@@H]4[C@@]5(C)CC[C@H](O[C@@H]6O[C@H](CO)[C@@H](O)[C@H](O)[C@H]6O[C@@H]6O[C@H](CO)[C@@H](O)[C@H](O[C@@H]7O[C@H](CO)[C@@H](O)[C@H](O)[C@H]7O[C@@H]7O[C@H](CO)[C@@H](O)[C@H](O)[C@H]7O)[C@H]6O)C(C)(C)[C@@H]5CC[C@]43C)[C@@H]2C1` [PACHYELASIDE B] reads 2 µg/mL (≈ 1.81 µM); that for `CC1(C)C[C@H]2C3=CC[C@@H]4[C@@]5(C)CC[C@H](O[C@@H]6O[C@H](CO)[C@@H](O)[C@H](O)[C@H]6O[C@@H]6O[C@H](CO)[C@@H](O)[C@H](O[C@@H]7O[C@H](CO)[C@@H](O)[C@H](O)[C@H]7O[C@@H]7O[C@H](CO)[C@@H](O)[C@H](O)[C@H]7O)[C@H]6O)C(C)(C)[C@@H]5CC[C@@]4(C)[C@]3(C)CC[C@@]2(C(=O)O)C[C@@H]1OC(=O)/C=C/c1ccccc1` [PACHYELASIDE-A], 2 µg/mL (≈ 1.6 µM); that for `CC1(C)C[C@H]2C3=CC[C@@H]4[C@@]5(C)CC[C@H](O[C@@H]6O[C@H](CO)[C@@H](O[C@@H]7OC[C@@H](O)[C@H](O)[C@H]7O)[C@H](O)[C@H]6O[C@@H]6O[C@H](CO)[C@@H](O)[C@H](O[C@@H]7O[C@H](CO)[C@@H](O)[C@H](O)[C@H]7O[C@@H]7O[C@H](CO)[C@@H](O)[C@H](O)[C@H]7O)[C@H]6O)C(C)(C)[C@@H]5CC[C@@]4(C)[C@]3(C)CC[C@@]2(C(=O)O)C[C@@H]1OC(=O)/C=C/c1ccccc1` [PACHYELASIDE D], 8 µg/mL (≈ 5.78 µM).
